Assay results: patent publication US10647679B2, “N-methyl-D-aspartate receptor (NMDAR) potentiators, pharmaceutical compositions, and uses related thereto” (Emory University, priority 2015, dated 2020)
Like-named read-outs stand apart in the source and are kept apart here.

Legend:
Assay type in all cases: cell-based
[1] = target: T1, recombinant rat GluN1/GluN2D (Rattus norvegicus, UniProt P35439+Q62645); test: Two-electrode voltage-clamp (TEVC) recordings in Xenopus laevis oocytes, GluN1/GluN2D
T1 construct: expressed in transfected cells; host or cells: Xenopus laevis oocytes (Ecocyte) injected with in vitro transcribed cRNA
Procedure: (§1) Data are from between 3-26 oocytes from 2-5 frogs for each compound and receptor tested.
(§2) Two-electrode voltage-clamp recordings were performed in Xenopus laevis oocytes (Ecocyte) expressing recombinant rat GluN1/GluN2A, GluN1/GluN2B, GluN1/GluN2C, GluN1/GluN2D. cRNA was transcribed in vitro (Ambion), diluted with nuclease free water, and injected at a ratio of 1:2 GluN1:GluN2 (5-10 ng total cRNA). The oocytes were kept in Barth's solution comprised of (in mM) 88 NaCl, 5 Tris-HCl, 2.4 NaHCO3, 1 KCl, 0.84 MgSO4, 0.41 CaCl2, and 0.33 Ca(NO3)2 at pH 7.4 at 15-17° C. for two to five days before experiments. Oocytes were placed into a perfusion chamber and continually washed with recording solution containing (in mM) 90 NaCl, 1.0 KCl, 0.5 BaCl2, 0.005 EDTA, and 10 HEPES at pH 7.4 (23° C.). Voltage clamp recordings were conducted at a holding potential of −40 mV. All compounds were made as 20 mM stock solutions in DMSO and dissolved to reach the final concentration in recording solution. Final DMSO content was 0.05-0.5% (vol/vol). Some oocytes expressing GluN1/GluN2A were pretreated with […] BAPTA-AM for 10 minutes or injected with […] of 2 mM K-BAPTA to prevent gradual run-up of the current response.

[2] = target: T2, recombinant rat GluN1/GluN2D (Rattus norvegicus, UniProt Q62645); test: as above; conditions: for I10 μM/Icontrol (mean ± SEM, %) GluN2D: 10 μM compound, Table 3
T2 construct: expressed in transfected cells; host or cells: Xenopus laevis oocytes (Ecocyte) injected with in vitro transcribed cRNA
Procedure: as §1, §2

[3] = target: T3, recombinant rat GluN1/GluN2B (Rattus norvegicus, UniProt Q00960); test: Two-electrode voltage-clamp (TEVC) recordings in Xenopus laevis oocytes, GluN1/GluN2B; conditions: for I10 μM/Icontrol (mean ± SEM, %) GluN2B: 10 μM compound, Table 3
T3 construct: expressed in transfected cells; host or cells: Xenopus laevis oocytes (Ecocyte) injected with in vitro transcribed cRNA
Procedure: as §1, §2

[4] = target: T4, recombinant rat GluN1/GluN2B (Rattus norvegicus, UniProt P35439+Q00960); test: as above
T4 construct: expressed in transfected cells; host or cells: Xenopus laevis oocytes (Ecocyte) injected with in vitro transcribed cRNA
Procedure: as §1, §2

[5] = target: T5, recombinant rat GluN1/GluN2C (Rattus norvegicus, UniProt Q00961); test: Two-electrode voltage-clamp (TEVC) recordings in Xenopus laevis oocytes, GluN1/GluN2C; conditions: for I10 μM/Icontrol (mean ± SEM, %) GluN2C: 10 μM compound, Table 3
T5 construct: expressed in transfected cells; host or cells: Xenopus laevis oocytes (Ecocyte) injected with in vitro transcribed cRNA
Procedure: as §1, §2

[6] = target: T6, recombinant rat GluN1/GluN2C (Rattus norvegicus, UniProt P35439+Q00961); test: as above
T6 construct: expressed in transfected cells; host or cells: Xenopus laevis oocytes (Ecocyte) injected with in vitro transcribed cRNA
Procedure: as §1, §2

[7] = fitted when potentiation at 30 μM exceeded 120%, Tables 3, 5-7, read-out: EC50 (max.) (μM %) GluN2D: fitted EC50
[8] = percentage of the initial glutamate (100 μM) and glycine (30 μM) current, read-out: EC50 (max.) (μM %) GluN2D: fitted maximum response
[9] = fitted when potentiation at 30 μM exceeded 120%, Tables 3, 5-7, read-out: EC50 (max.) (μM %) GluN2B: fitted EC50
[10] = percentage of the initial glutamate (100 μM) and glycine (30 μM) current, read-out: EC50 (max.) (μM %) GluN2B: fitted maximum response
[11] = fitted when potentiation at 30 μM exceeded 120%, Tables 3, 5-7, read-out: EC50 (max.) (μM %) GluN2C: fitted EC50
[12] = percentage of the initial glutamate (100 μM) and glycine (30 μM) current, read-out: EC50 (max.) (μM %) GluN2C: fitted maximum response
[13] = untitled tables after drawing 25 and drawing 36, read-out: EC50 (μM) GluN2D
[14] = untitled tables after drawing 25 and drawing 36, read-out: EC50 (μM) GluN2B
[15] = untitled tables after drawing 25 and drawing 36, read-out: EC50 (μM) GluN2C
[16] = maximum potentiation, response without modulator = 100%, read-out: GluN2D EC50 (μM)/Max %: Max %
[17] = maximum potentiation, response without modulator = 100%, read-out: GluN2C EC50 (μM)/Max %: Max %
[18] = Tables 11-13, read-out: EC50 & Max Effect: 2D Max (%)
[19] = Tables 11-13, read-out: EC50 & Max Effect: 2C Max (%)
[20] = maximum potentiation, response without modulator = 100%, read-out: GluN2B EC50 (μM)/Max %: Max %
[21] = read-out: EC50 & Max Effect: 2C Max (%)

T2 sequence (Q62645 28-1323, other chains not shown): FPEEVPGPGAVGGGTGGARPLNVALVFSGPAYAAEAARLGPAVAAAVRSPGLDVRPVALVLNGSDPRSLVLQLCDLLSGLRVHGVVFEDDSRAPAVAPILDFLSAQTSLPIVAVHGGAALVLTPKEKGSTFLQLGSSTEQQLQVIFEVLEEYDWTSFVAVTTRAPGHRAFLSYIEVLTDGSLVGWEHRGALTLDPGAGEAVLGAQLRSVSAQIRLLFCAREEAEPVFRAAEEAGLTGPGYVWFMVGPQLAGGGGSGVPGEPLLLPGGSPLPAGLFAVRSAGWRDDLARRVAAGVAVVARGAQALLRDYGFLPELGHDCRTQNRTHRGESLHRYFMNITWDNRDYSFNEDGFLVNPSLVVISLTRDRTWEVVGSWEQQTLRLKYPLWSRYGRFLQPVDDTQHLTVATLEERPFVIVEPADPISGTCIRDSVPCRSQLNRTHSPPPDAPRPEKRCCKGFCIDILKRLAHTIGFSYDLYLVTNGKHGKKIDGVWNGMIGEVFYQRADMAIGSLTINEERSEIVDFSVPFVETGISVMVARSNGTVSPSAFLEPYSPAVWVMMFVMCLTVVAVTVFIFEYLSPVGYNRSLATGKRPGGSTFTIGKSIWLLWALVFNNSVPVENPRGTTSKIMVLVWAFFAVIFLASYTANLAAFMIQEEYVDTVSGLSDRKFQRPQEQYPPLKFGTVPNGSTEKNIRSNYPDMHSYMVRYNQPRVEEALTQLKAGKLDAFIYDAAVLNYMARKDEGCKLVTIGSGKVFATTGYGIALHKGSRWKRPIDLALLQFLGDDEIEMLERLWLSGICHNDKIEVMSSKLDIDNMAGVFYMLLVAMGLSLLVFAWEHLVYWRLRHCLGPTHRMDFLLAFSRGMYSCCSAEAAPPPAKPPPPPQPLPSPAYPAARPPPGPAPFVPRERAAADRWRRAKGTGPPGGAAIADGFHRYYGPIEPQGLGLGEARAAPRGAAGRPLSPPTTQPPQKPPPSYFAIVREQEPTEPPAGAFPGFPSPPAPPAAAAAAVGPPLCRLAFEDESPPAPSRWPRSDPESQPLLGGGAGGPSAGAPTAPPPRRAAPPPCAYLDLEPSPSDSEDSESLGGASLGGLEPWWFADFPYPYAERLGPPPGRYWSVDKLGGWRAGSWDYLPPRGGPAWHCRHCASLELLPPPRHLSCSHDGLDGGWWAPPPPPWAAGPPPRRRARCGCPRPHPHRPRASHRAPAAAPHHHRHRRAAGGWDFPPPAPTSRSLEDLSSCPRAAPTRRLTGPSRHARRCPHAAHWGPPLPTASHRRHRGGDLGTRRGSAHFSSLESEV
T1 sequence (Q62645 28-1323, other chains not shown): as above
T5 sequence (Q00961 20-1237, other chains not shown): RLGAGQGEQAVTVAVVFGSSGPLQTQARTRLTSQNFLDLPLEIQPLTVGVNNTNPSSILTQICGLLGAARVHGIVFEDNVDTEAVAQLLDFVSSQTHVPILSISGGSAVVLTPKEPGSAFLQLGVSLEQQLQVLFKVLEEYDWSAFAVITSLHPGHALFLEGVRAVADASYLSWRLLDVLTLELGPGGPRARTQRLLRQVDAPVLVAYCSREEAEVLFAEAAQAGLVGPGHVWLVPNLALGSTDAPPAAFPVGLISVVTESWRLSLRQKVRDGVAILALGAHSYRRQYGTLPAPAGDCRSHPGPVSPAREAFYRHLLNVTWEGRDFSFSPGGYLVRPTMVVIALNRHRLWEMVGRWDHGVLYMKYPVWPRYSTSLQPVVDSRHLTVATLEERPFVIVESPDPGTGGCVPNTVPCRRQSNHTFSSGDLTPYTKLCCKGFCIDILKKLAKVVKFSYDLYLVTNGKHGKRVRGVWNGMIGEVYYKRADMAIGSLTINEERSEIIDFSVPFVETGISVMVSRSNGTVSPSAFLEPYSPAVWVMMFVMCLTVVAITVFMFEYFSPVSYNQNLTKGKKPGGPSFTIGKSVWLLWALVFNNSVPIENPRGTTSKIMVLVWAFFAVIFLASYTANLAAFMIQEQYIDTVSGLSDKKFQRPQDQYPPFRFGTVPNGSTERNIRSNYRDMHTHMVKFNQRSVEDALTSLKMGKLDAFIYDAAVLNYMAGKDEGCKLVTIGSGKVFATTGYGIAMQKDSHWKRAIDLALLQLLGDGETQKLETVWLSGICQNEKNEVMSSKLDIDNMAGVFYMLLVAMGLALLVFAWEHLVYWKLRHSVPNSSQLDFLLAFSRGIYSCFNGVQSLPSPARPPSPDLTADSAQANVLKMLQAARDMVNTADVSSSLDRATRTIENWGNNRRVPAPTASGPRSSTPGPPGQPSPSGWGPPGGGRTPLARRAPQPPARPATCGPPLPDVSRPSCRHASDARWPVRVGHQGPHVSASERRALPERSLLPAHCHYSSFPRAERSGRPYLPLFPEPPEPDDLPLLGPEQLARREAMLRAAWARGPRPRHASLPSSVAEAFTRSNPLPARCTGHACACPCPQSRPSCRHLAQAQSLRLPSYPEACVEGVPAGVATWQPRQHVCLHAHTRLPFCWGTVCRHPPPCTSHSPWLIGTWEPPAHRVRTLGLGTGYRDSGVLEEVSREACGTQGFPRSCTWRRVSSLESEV
T6 sequence (Q00961 20-1237, other chains not shown): as above
T4 sequence (Q00960 27-1482, other chains not shown): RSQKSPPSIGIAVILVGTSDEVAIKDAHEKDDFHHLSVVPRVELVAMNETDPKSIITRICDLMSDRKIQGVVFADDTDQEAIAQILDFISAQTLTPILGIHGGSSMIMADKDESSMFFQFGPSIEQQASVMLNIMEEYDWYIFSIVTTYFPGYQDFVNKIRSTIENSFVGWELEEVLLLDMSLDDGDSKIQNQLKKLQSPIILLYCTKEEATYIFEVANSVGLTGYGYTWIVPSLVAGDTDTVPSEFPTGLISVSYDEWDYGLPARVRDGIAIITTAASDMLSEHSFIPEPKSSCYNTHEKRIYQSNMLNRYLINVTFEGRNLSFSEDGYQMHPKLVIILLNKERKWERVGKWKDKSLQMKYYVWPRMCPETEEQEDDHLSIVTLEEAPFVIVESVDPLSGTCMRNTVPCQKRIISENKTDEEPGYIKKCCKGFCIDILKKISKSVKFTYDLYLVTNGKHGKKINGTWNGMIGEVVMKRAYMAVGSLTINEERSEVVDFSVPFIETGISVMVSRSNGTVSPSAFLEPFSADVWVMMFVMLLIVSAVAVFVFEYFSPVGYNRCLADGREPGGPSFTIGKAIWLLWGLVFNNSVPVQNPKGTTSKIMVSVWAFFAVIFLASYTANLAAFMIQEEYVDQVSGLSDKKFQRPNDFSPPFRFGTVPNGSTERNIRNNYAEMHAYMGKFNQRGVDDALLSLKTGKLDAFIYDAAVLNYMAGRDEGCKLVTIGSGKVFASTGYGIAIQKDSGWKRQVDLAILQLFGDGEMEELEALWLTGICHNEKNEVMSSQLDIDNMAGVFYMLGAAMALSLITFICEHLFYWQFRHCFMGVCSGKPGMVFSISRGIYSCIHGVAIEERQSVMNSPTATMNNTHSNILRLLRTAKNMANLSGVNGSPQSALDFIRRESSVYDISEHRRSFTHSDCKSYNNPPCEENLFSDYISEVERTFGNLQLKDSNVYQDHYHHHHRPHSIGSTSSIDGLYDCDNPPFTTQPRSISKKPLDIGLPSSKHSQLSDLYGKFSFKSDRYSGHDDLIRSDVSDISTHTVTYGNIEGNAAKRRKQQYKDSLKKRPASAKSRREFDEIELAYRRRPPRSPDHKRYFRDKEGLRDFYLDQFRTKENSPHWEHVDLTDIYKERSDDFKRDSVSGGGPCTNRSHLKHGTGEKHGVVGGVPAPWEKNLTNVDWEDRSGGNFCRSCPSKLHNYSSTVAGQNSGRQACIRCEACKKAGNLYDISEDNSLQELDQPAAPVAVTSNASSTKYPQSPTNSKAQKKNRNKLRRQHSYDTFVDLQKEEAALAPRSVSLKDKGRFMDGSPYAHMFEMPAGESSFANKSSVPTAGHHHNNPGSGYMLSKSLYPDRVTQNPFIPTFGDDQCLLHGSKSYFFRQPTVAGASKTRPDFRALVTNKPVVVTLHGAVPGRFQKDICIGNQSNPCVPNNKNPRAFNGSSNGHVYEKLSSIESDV

COc1ccc(OC[C@@H]2c3ccc(OC(C)C)cc3CCN2C(=S)c2cccc(Cl)c2)cc1 [(S)-(−)-1180-163]
EC50 [1, 7]: 0.5 µM | Emax [1, 8]: 313% | I10 μM/Icontrol (mean ± SEM, %) GluN2D [2]: 299% | I10 μM/Icontrol (mean ± SEM, %) GluN2B [3]: 203% | EC50 [4, 9]: 0.28 µM | Emax [4, 10]: 202% | I10 μM/Icontrol (mean ± SEM, %) GluN2C [5]: 302% | EC50 [6, 11]: 0.5 µM | Emax [6, 12]: 316%

CC(C)Oc1ccc(OCC2c3ccc(OC(C)C)cc3CCN2C(=S)c2cccc(Cl)c2)cc1 (stereo not shown) [1180-265]
EC50 [1, 13]: 0.4 µM | EC50 [4, 14]: 0.6 µM | EC50 [6, 15]: 0.3 µM

COc1ccc(OCC2c3ccc(N(C)C)cc3CCN2C(=S)c2cccc(Cl)c2)cc1 (stereo not shown) [1180-167]
Emax [1, 16]: 127% | Emax [6, 17]: 134%

CCOc1ccc(OC[C@@H]2c3ccc(OC(C)C)cc3CCN2C(=S)c2cccc(F)c2)cc1 [(S)-(−)-1180-154]
EC50 [1, 7]: 0.47 µM | Emax [1, 8]: 190% | I30 μM/Icontrol (mean ± SEM, %) GluN2D ([2]; 30 μM compound, Tables 5-7): 185% | I30 μM/Icontrol (mean ± SEM, %) GluN2B ([3]; 30 μM compound, Tables 5-7): 206% | EC50 [4, 9]: < 0.5 µM | Emax [4, 10]: 213% | I30 μM/Icontrol (mean ± SEM, %) GluN2C ([5]; 30 μM compound, Tables 5-7): 153% | EC50 [6, 11]: 0.46 µM | Emax [6, 12]: 163%

COc1ccc(OCC2c3cc(C)c(C)cc3CCN2C(=O)c2cccc(Br)c2)cc1 (stereo not shown) [drawing 33 R1=Br R2=H R3=H R4=Me R5=Me]
Emax [1, 18]: 211% | Emax [6, 19]: 197%

COc1ccc(OCC2c3ccc(OC)cc3CCN2C(=O)c2ccc(Cl)s2)cc1 (stereo not shown) [1180-239]
EC50 [1, 13]: 1 µM | EC50 [4, 14]: 1.6 µM | EC50 [6, 15]: 0.9 µM

COc1ccc(OC[C@H]2c3ccc(OC(C)C)cc3CCN2C(=S)c2cccc(Cl)c2)cc1 [(R)-(+)-1180-163]
EC50 [1, 7]: 2.3 µM | Emax [1, 8]: 255% | I10 μM/Icontrol (mean ± SEM, %) GluN2D [2]: 215% | I10 μM/Icontrol (mean ± SEM, %) GluN2B [3]: 121% | I10 μM/Icontrol (mean ± SEM, %) GluN2C [5]: 252% | Emax [6, 12]: 252%

CCOc1ccc(OCC2c3ccc(OC(C)C)cc3CCN2C(=S)c2cccc(Br)c2)cc1 (stereo not shown) [1180-156]
Emax [1, 16]: 130% | Emax [4, 20]: 187% | Emax [6, 17]: 161%

COc1ccc(OCC2c3cc(OC)c(OC)cc3CCN2C(=O)c2ccccc2)cc1 (stereo not shown) [drawing 33 R1=H R2=H R3=H R4=OMe R5=OMe]
EC50 ([1]; Tables 11-13, read-out: EC50 & Max Effect: 2D): 11.4 µM | Emax [1, 18]: 156% | EC50 ([6]; Tables 11-13, read-out: EC50 & Max Effect: 2C): 12.3 µM | Emax [6, 19]: 450%

COc1ccc(OCC2c3ccc(OC(C)C)cc3CCN2C(=O)c2cccc(Cl)c2)cc1 (stereo not shown) [1180-55]
EC50 ([1]; EC50 & Max Effect: 2D (μM)): 2.9 µM | EC50 [1, 7]: 4.3 µM | Emax [1, 8]: 323% | I10 μM/Icontrol (mean ± SEM, %) GluN2D [2]: 281% | I10 μM/Icontrol (mean ± SEM, %) GluN2B [3]: 191% | EC50 [4, 9]: 5 µM | Emax [4, 20]: 193% | Emax [4, 10]: 215% | I10 μM/Icontrol (mean ± SEM, %) GluN2C [5]: 231% | Emax [6, 17]: 266% | Emax [6, 12]: 250% | Emax [6, 21]: 266%

CCOc1ccc(OCC2c3ccc(OC(C)C)cc3CCN2C(=O)c2ccc(F)c(Cl)c2)cc1 (stereo not shown) [1180-144]
Emax [1, 16]: 135% | Emax [4, 20]: 182% | Emax [6, 17]: 175%

COc1ccc(OC[C@@H]2c3ccc(OC(C)C)cc3CCN2C(=O)c2cccc(Cl)c2)cc1 [(S)-(−)-1180-55]
EC50 [1, 7]: 4.5 µM | Emax [1, 8]: 350% | I10 μM/Icontrol (mean ± SEM, %) GluN2D [2]: 336% | I10 μM/Icontrol (mean ± SEM, %) GluN2B [3]: 269% | EC50 [4, 9]: 5.2 µM | Emax [4, 10]: 307% | I10 μM/Icontrol (mean ± SEM, %) GluN2C [5]: 361% | Emax [6, 12]: 360%

COc1ccc(OC[C@@H]2c3cc(OC)c(OC)cc3CCN2C(=O)c2cccc(Cl)c2)cc1 [S-1390]
Emax ([1]; read-out: EC50 & Max Effect: 2D Max (%)): 299% | EC50 ([6]; EC50 & Max Effect: 2C (μM)): 6.1 µM | Emax [6, 21]: 275%
